The target in one series is T1, recombinant human COX-2 (Homo sapiens, UniProt P35354).
T1 construct: purchased Cayman Chemical 700100
T1 sequence (P35354 18-604): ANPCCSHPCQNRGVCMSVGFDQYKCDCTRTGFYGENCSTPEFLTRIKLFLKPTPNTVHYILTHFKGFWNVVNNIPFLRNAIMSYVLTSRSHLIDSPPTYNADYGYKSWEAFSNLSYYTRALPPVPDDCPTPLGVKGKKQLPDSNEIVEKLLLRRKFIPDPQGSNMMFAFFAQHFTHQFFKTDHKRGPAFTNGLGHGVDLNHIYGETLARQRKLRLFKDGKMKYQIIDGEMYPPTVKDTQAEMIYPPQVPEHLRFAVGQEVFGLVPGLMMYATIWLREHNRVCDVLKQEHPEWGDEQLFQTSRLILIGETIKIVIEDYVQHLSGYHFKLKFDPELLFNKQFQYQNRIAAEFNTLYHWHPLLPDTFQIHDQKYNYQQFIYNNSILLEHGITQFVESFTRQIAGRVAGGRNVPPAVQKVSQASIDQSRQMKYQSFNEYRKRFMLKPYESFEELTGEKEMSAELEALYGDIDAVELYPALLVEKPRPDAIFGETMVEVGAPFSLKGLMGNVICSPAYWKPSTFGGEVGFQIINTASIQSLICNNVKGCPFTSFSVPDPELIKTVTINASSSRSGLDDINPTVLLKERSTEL
On the set-up: method as in PMID 26081289. The following applies: COX-1 vs COX-2 selectivity index; COX inhibition previously reported ref 49; cited from earlier work.

Series [1] is described as follows: Lipophilicity logD7.4 by HPLC method. Format: physicochemical. The following applies: HPLC retention on ODP-50 4B column (Shodex Asahipak), phosphate buffer pH 7.4. The protocol: The lipophilicity of all synthesized compounds was determined as logD7.4, HPLC value by an HPLC method originally described by Donovan and Pescatore.
The logD7.4HPLC value was determined as previously reported by us utilizing an HPLC method originally described by Donovan and Pescatore.

A further series has as its target T2, purified ovine COX-1 (Ovis aries, UniProt P05979).
T2 construct: purchased Cayman Chemical 700100
T2 sequence (P05979 25-600): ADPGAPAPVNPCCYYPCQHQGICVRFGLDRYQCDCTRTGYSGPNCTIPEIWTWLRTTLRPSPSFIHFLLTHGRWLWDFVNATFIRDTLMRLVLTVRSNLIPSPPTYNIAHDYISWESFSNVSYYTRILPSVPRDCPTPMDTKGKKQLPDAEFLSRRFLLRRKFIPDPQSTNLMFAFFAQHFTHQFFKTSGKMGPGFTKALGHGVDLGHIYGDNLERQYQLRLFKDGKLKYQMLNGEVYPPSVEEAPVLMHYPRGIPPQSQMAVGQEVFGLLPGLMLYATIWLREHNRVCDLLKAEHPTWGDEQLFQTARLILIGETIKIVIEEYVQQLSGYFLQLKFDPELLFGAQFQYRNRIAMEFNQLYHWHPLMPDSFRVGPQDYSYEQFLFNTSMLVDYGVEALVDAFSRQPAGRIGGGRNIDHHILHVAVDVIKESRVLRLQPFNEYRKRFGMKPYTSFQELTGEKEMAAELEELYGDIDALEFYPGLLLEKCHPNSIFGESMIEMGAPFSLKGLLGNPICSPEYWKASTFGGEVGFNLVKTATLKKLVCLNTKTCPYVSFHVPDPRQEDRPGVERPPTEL
Further details: method as in PMID 26081289. The conditions noted are these: previously reported ref 49; cited from earlier work.

Series [2] concerns MPC-HIF2α tumor spheroids. The series is described as follows: Spheroid regrowth assay with external X-ray irradiation. It is filed as cell-based, mouse. The conditions noted are these: X-ray 15 Gy; 10 µM compound added 2 h post irradiation; controls 83%. The protocol:
(§1) As a first pilot study, growth responses of MPC-HIF2α spheroids were investigated after two different radiation treatments such as single-dose external beam irradiation (X-ray) and incubation with [^177Lu]LuCl3, respectively. NO-COXIBs were tested at 10 µM for additional effects on radiation treatments against a vehicle-treated control (w/o) and celecoxib (Ce).
The log2-fold change in spheroid diameter is given as a standardized parameter for spheroid growth, which is positive for growing, near zero for stagnating and negative for shrinking spheroids. Furthermore, regrowth probabilities are given as a parameter to compare how many of the overall studied spheroids in one group recovered within 14 days. Radioprotective effects occurred when compounds were added 2 h before irradiation. In this setup, all compounds accelerated the increase in spheroid size during the regrowth phase compared to controls (Figure 5A, upper panel). Regrowth probabilities of 67–100% under NO-COXIB treatment remained however similar to controls (83%). Radiosensitizing effects occurred when compounds were added 2 h post irradiation. In this setup, all compounds decelerated the increase in spheroid size during the regrowth phase compared to controls.
(§2) Genetically modified mouse pheochromocytoma (MPC) cells expressing a codon-optimized Epas1 gene (encoding HIF2α) were cultured as three-dimensional tumor spheroids as published elsewhere. External X-ray beam radiation treatment and [^177Lu]LuCl3 radionuclide treatment was performed as reported previously with some modifications. In brief, spheroids were irradiated with a 200 kV photon beam using a Maxishot X-ray system equipped with a Y.TU/320-D03 tube (YXLON, Hamburg, Germany), growth of spheroids (n = 6) with diameters between 300−400 µm was measured in response to one fixed radiation dose, 15 Gy for X-ray treatment, and 0.25 MBq/mL of [^177Lu]LuCl3 for radionuclide treatment corresponding to a cumulative dose of approximately 2 Gy delivered for 6 days. The applied radiation doses were selected based on the half-maximal spheroid control doses (SCD50) as previously determined for MPC HIF2α spheroids by us. Spheroids were considered as regrown at 100 µm increase in diameter compared to treatment start or at a diameter growth rate of 15 µm per day. Results are reported as spheroid regrowth probability (%).
(§3) Figure 5 Effects of NO-COXIBs on radiation treatments of MPC-HIF2α tumor spheroids. (A) Growth responses to X-ray treatment with a radiation dose of 15 Gy in combination with 10 µM NO-COXIBs added to the medium at indicated time points before or after irradiation. (B) Growth responses to [^177Lu]LuCl3 treatment with an initial activity concentration of 0.25 MBq/mL in combination with NO-COXIBs; log2 fold changes in diameter indicate the number of diameter doublings compared to treatment start; 14-day regrowth probability indicates the fraction of spheroids able to regrow within 14 days after treatment start; (black arrows) time point or duration of radiation treatment; (w/o) vehicle controls are shown as black lines; (Ce) celecoxib.

Series [3] has as its system MPC-HIF2α tumor spheroids. The series is described as follows: Spheroid regrowth assay with [177Lu]LuCl3 treatment. It is filed as cell-based, mouse. The conditions noted are these: 10 µM compound with 0.25 MBq [177Lu]LuCl3 for six days; for 14-day regrowth probability: controls 50%.
From the text: Radionuclide therapy is a fast-evolving treatment modality gaining more importance in treating cancer. For treatment of pheochromocytomas and paragangliomas, in particular, somatostatin type 2 receptor-targeted radionuclide therapy with [^177Lu]Lu-(Tyr^3)octreotate is currently investigated in clinical controlled trials (e.g., NCT04029428, NCT03923257, NCT03206060). To assess the additional effects of NO-COXIBs on the outcome of Lu-177 therapy, a simplified in vitro setup was used here, where MPC-HIF2α tumor spheroids were treated with 10 µM of the compounds and simultaneously 0.25 MBq of [^177Lu]LuCl3 for six days.
as §2, §3

Details of series [4]: method as in PMID 25547413. The conditions noted are these: cited from earlier work.
The subject of the next series is MPC-HIF2a spheroids. Description: Growth of non-irradiated tumor spheroids. Format: cell-based, mouse. The conditions noted are these: 10 µM compound, linear regression between 0 and 9 days. How it is done: as §1
4. Growth-rate of tumor spheroids in the presence of NO -COXIBS without radiation treatment
Compound Diameter growth rate
Table S2. Effects of NO-COXIBs on spheroid growth; diameter growth rates of non-irradiated MPC-HIF2a spheroids in presence of 10 µM of compounds determined from linear regression between 0 and 9 days after treatment start; (w/o) vehicle control treated with DMSO

A further series relates to Mel-Juso cells. Further details: method as in PMID 26081289. The conditions noted are these: 10 µM, DMSO control 4.2 Gy; cited from earlier work.
Series [5] can be described thus: Fluorometric NO release assay (Griess assay). Format: physicochemical. The following applies: 24 h, 37 °C, relative to initial molar amount of compound. The protocol:
The nitric oxide releasing properties of the nitroester-derivatives 5a–d, 5f, and 6a–d were evaluated using a fluorometric Griess assay in the presence and absence of cysteine to determine thiol-dependent and spontaneous release of nitric oxide (Figure 3).
Nitric oxide release of compounds within 24 h at 37 °C was measured using the fluorometric nitric oxide microplate assay kit ab65327 (Abcam, Cambridge, UK). For measurement of spontaneous release, 1.8 nmol of compounds were incubated in 75 µL Dulbecco’s PBS containing 0.05% v/v residual DMSO and 2.5 mM DTPA (pH = 7.1) for 24 h at 37 °C. Thiol-dependent release was measured accordingly in presence of 2.5 mM cysteine. Two series of nitrate standards were prepared (0.2−1 nmol) in 75 µL incubation buffer, in presence or absence of cysteine, respectively. According to the manufacturer’s instructions, all nitrate content in samples and standards was enzymatically converted into nitrite through incubation with nitrate reductase for 2 h at room temperature, and the resulting nitrite content (total nitric oxide) was determined through reaction with 2,3-diaminonaphthalene followed by measurement of fluorescence intensity at λex/em = 360/450 nm using a microplate reader. Nitrite content in samples was calculated from linear regression of standards and expressed as relative nitric oxide release (%) normalized to the initial molar amount of compound. NONOate served as positive control.
Figure 3 Spontaneous and thiol-dependent NO^• release from NO-COXIBs; measured using fluorometric Griess assay (n = 2); relative release indicates the percentage of soluble nitrogen species (nitrate + nitrite) detected in the incubation buffer after 24 h compared to the initial molar amount of compounds; NO^• release of NONOate (positive control) exceeded the maximum detection limit; data presented as mean ± range.

The subject of a further series is A2058 cells. On the set-up: method as in PMID 26081289. The following applies: 10 µM, DMSO control 6.6 Gy; cited from earlier work.

On to `Cc1ccc(-c2cc(CO[N+](=O)[O-])nn2-c2ccc(S(N)(=O)=O)cc2)cc1` [5e, [1-(4-Sulfamoylphenyl)-5-(p-tolyl)-1H-pyrazol-3-yl]methyl nitrate], for which the SI at recombinant human COX-2 was more than 112. Besides, the chromatographic logD in series [1] was 3.4. In addition, the IC50 at purified ovine COX-1 is more than 100 µM.
In the case of `Cc1ccc(-c2cc(C(F)(F)F)nn2-c2ccc(S(N)(=O)=O)cc2)cc1` [celecoxib], the 14-day regrowth probability in series [2] was determined as 0%; in series [3] it was 40%. Moreover, the “scavenging effects on OH•, O2•−, and OCl-” value in series [4] was “did not show any scavenging effects”. In the series with MPC-HIF2a spheroids, the “Diameter growth rate ± SEM” value is 57.3 ± 4.0 µm/day.
In the case of `Cc1ccc(-c2c(Cl)c(CO[N+](=O)[O-])nn2-c2ccc(S(N)(=O)=O)cc2)cc1` [5a, [4-Chloro-1-(4-sulfamoylphenyl)-5-(p-tolyl)-1H-pyrazol-3-yl]methyl nitrate], the “required radiation dose for 10% survival” value in the series on Mel-Juso cells is listed as 3.2 Gy; in the series on A2058 cells it was 5.2 Gy. The 14-day regrowth probability in [2] is listed as 17%; in [3], 60–80%. Also, the “growth response (spheroid size)” value in series [3] (compared to controls) is on record as “prevented spheroids from shrinking in size”. The “thiol-dependent NO release” value in series [5] (2.5 mM cysteine) is listed as 29–53%. In series [5] (absence of cysteine), the “spontaneous NO release” value was 10–22%. Besides, the chromatographic logD in series [1] turned out to be 3.76. For the same compound, the “Diameter growth rate ± SEM” value with MPC-HIF2a spheroids came to 54.1 ± 5.2 µm/day.
With `Cc1ccc(-c2c(Cl)c(CCl)nn2-c2ccc(S(N)(=O)=O)cc2)cc1` [4a, 4-[4-Chloro-3-(chloromethyl)-5-(4-toly)-1H-pyrazol-1-yl]benzenesulfonamide], the SI at recombinant human COX-2 was more than 454. Also, the chromatographic logD in series [1] worked out at 3.61. At purified ovine COX-1, the IC50 is more than 100 µM.

Source of the values: paper PMC9573605, “Exploring Nitric Oxide (NO)-Releasing Celecoxib Derivatives as Modulators of Radioresponse in Pheochromocytoma Cells” (Molecules, 2022).
